Source: patent publication US9708314B2, “Heterocyclic amide compound” (NISSAN CHEMICAL INDUSTRIES, LTD., priority 2013, dated 2017)

Assays:
Assay type in all cases: in vivo
[1] = test system: transplanted Oryza sativa; assay: Test Example 1: effect on crop, application before weed generation in submerged conditions; details: Application herbicide amount 320 g/ha; Seventeenth Table
Excerpt: [Test Example 1] Herbicidal Activity Test by Application Before Weed Generation in Submerged Conditions After alluvial soil was placed into 1/10000 are of Wagner pot, water was poured and mixed to form a submerged condition having a water depth of 4 cm. Seeds of Echinochloa oryzacola Vasing., Scirpus juncoides, and Monochoria vaginalis were sowed in a mixed manner in the above pot and thereafter 2.5 leaf stage Oryza sativa seedling was transplanted. On the day of sowing seeds, the emulsion agent containing the compound of the present invention prepared in accordance with Formulation Example 2 was diluted with water so as to be a predetermined herbicide amount and the diluted compound was applied to the surface of the water. The pot was placed in a greenhouse of 25° C. to 30° C. to grow plant. Three weeks after the herbicide application, effects on each plant were investigated in accordance with the following criteria. Criteria 5 Herbicidal ratio of 90% or more (almost completely withered) 4 Herbicidal ratio of 70% or more and less than 90% 3 Herbicidal ratio of 40% or more and less than 70% 2 Herbicidal ratio of 20% or more and less than 40% 1 Herbicidal ratio of 5% or more and less than 20% 0 Herbicidal ratio of 5% or less (almost no effect) A: Echinochloa oryzicola Vasing., B: Scirpus juncoides, C: Monochoria vaginalis, D: Leptochloa chinensis, E: Cyperus difformis, F: Digitaria ciliaris, G: Setaria viridis, H: Echinochloa crus-galli var. crus-galli, I: Avena fatua, J: Alopecurus myosuroides, K: Lolium multiflorum Lam., L: Apera spica-venti., M: Abutilon theophrasti, N: Amaranthus retroflexus, O: Chenopodium album, P: Stellaria media, Q: Galium spurium, R: Veronica persica, a: transplanted Oryza sativa, b: directly sowed Oryza sativa, c: Zea mays, d: Glycine max, e: Triticum aestivum, f: Beta vulgaris ssp. vulgaris, and g: Brassica campestris L. The application herbicide amount (g/ha) means an amount that a concentration is adjusted so that, when an application amount is converted into per hectare (1 ha), the herbicide is applied by the number of grams (g) of the described value.

Cyperus difformis = assay: Test Example 3: herbicidal effect by application to foliage (Wagner pot, water depth 0.1-0.5 cm); details: Nineteenth Table
How it was run: (§1)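 Plants are raised 14 days from seed in flooded-surface Wagner pots at 25–30 °C, sprayed on stems and leaves with diluted emulsion at a predetermined rate, and rated three weeks on using a 0–5 herbicidal-ratio scale (5 ≥90%).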

[2] = test system: Echinochloa crus-galli var. crus-galli; assay: as above; details: Nineteenth Table
How it was run: as §1

Leptochloa chinensis = assay: as above; details: Nineteenth Table
How it was run: as §1

[3] = test system: Beta vulgaris ssp. vulgaris; assay: Test Example 4: effect on crop by application to foliage (diluvial soil, plastic box); details: application to foliage, application herbicide amount 320 g/ha
How it was run: (§2)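 Read-out is a 0–5 visual grade of herbicidal ratio (5: ≥90%, almost withered; 0: ≤5%) taken three weeks after treatment. Compound was applied as a diluted emulsion to stem and leaf parts of 14-day greenhouse-grown plants (25° C. to 30° C.) at rates expressed as g/ha.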

Brassica campestris L. = assay: as above; details: application to foliage, application herbicide amount 320 g/ha
How it was run: as §2

Glycine max = assay: as above; details: application to foliage, application herbicide amount 320 g/ha
How it was run: as §2

Zea mays = assay: as above; details: application to foliage, application herbicide amount 320 g/ha
How it was run: as §2

[4] = test system: directly sowed Oryza sativa; assay: as above; details: application to foliage, application herbicide amount 320 g/ha
How it was run: as §2

[5] = application herbicide amount 400 g/ha
[6] = application herbicide amount 320 g/ha

Structure (SMILES)	a: transplanted Oryza sativa (effect on crop grade) [1]	E (Cyperus difformis) herbicidal ratio grade (Cyperus difformis; [5])	H (Echinochloa crus-galli var. crus-galli) herbicidal ratio grade [2, 5]	D (Leptochloa chinensis) herbicidal ratio grade (Leptochloa chinensis; [5])	f (Beta vulgaris ssp. vulgaris) effect on crop [3]	g (Brassica campestris L.) effect on crop (Brassica campestris L.)	c (Glycine max) effect on crop (Glycine max)	b (Zea mays) effect on crop (Zea mays)	d (directly sowed Oryza sativa) effect on crop [4]	E (Cyperus difformis) herbicidal ratio grade (Cyperus difformis; [6])	H (Echinochloa crus-galli var. crus-galli) herbicidal ratio grade [2, 6]	D (Leptochloa chinensis) herbicidal ratio grade (Leptochloa chinensis; [6])
Cc1nnc(NC(=O)c2ccc(C(F)(F)F)n3c(C4CC4)nnc23)o1 [1-010]	0 (Herbicidal ratio of 5% or less (almost no effect))	4 (Herbicidal ratio of 70% or more and less than 90%)	5 (Herbicidal ratio of 90% or more (almost completely withered))	5 (Herbicidal ratio of 90% or more (almost completely withered))	5 (Herbicidal ratio of 90% or more (almost completely withered))	3 (Herbicidal ratio of 40% or more and less than 70%)	1 (Herbicidal ratio of 5% or more and less than 20%)	0 (Herbicidal ratio of 5% or less (almost no effect))	4 (Herbicidal ratio of 70% or more and less than 90%)	–	–	–
CCC(CC)c1nnc2c(C(=O)Nc3nnc(C)o3)ccc(C(F)(F)F)n12 [1-011]	1 (Herbicidal ratio of 5% or more and less than 20%)	5 (Herbicidal ratio of 90% or more (almost completely withered))	5 (Herbicidal ratio of 90% or more (almost completely withered))	5 (Herbicidal ratio of 90% or more (almost completely withered))	5 (Herbicidal ratio of 90% or more (almost completely withered))	3 (Herbicidal ratio of 40% or more and less than 70%)	3 (Herbicidal ratio of 40% or more and less than 70%)	0 (Herbicidal ratio of 5% or less (almost no effect))	4 (Herbicidal ratio of 70% or more and less than 90%)	–	–	–
Cc1nnc(NC(=O)c2ccc(C(F)(F)F)n3c(Br)nnc23)o1 [1-014]	0 (Herbicidal ratio of 5% or less (almost no effect))	–	–	–	5 (Herbicidal ratio of 90% or more (almost completely withered))	2 (Herbicidal ratio of 20% or more and less than 40%)	0 (Herbicidal ratio of 5% or less (almost no effect))	1 (Herbicidal ratio of 5% or more and less than 20%)	3 (Herbicidal ratio of 40% or more and less than 70%)	4 (Herbicidal ratio of 70% or more and less than 90%)	5 (Herbicidal ratio of 90% or more (almost completely withered))	2 (Herbicidal ratio of 20% or more and less than 40%)
COCc1nnc2c(C(=O)Nc3nnc(C)o3)ccc(C(F)(F)F)n12 [1-015]	0 (Herbicidal ratio of 5% or less (almost no effect))	–	–	–	5 (Herbicidal ratio of 90% or more (almost completely withered))	4 (Herbicidal ratio of 70% or more and less than 90%)	1 (Herbicidal ratio of 5% or more and less than 20%)	0 (Herbicidal ratio of 5% or less (almost no effect))	4 (Herbicidal ratio of 70% or more and less than 90%)	4 (Herbicidal ratio of 70% or more and less than 90%)	5 (Herbicidal ratio of 90% or more (almost completely withered))	5 (Herbicidal ratio of 90% or more (almost completely withered))
COc1ccc(-c2nnc3c(C(=O)Nc4nnc(C)o4)ccc(C(F)(F)F)n23)cc1 [1-016]	0 (Herbicidal ratio of 5% or less (almost no effect))	–	–	–	5 (Herbicidal ratio of 90% or more (almost completely withered))	3 (Herbicidal ratio of 40% or more and less than 70%)	0 (Herbicidal ratio of 5% or less (almost no effect))	0 (Herbicidal ratio of 5% or less (almost no effect))	0 (Herbicidal ratio of 5% or less (almost no effect))	5 (Herbicidal ratio of 90% or more (almost completely withered))	5 (Herbicidal ratio of 90% or more (almost completely withered))	5 (Herbicidal ratio of 90% or more (almost completely withered))
Cc1nnc(NC(=O)c2ccc(C(F)(F)F)n3c(-c4ccc(Cl)cc4)nnc23)o1 [1-017]	0 (Herbicidal ratio of 5% or less (almost no effect))	–	–	–	5 (Herbicidal ratio of 90% or more (almost completely withered))	3 (Herbicidal ratio of 40% or more and less than 70%)	0 (Herbicidal ratio of 5% or less (almost no effect))	0 (Herbicidal ratio of 5% or less (almost no effect))	3 (Herbicidal ratio of 40% or more and less than 70%)	4 (Herbicidal ratio of 70% or more and less than 90%)	4 (Herbicidal ratio of 70% or more and less than 90%)	3 (Herbicidal ratio of 40% or more and less than 70%)
CSc1nnc2c(C(=O)Nc3nnc(C)o3)ccc(C(F)(F)F)n12 [1-018, N-(5-Methyl-1,3,4-oxadiazol-2-yl)-3-(methylthio)-5-(trifluoromethyl)-[1,2,4]triazol o[4,3-a]pyridine-8-carboxamide]	0 (Herbicidal ratio of 5% or less (almost no effect))	–	–	–	1 (Herbicidal ratio of 5% or more and less than 20%)	0 (Herbicidal ratio of 5% or less (almost no effect))	0 (Herbicidal ratio of 5% or less (almost no effect))	0 (Herbicidal ratio of 5% or less (almost no effect))	0 (Herbicidal ratio of 5% or less (almost no effect))	4 (Herbicidal ratio of 70% or more and less than 90%)	4 (Herbicidal ratio of 70% or more and less than 90%)	4 (Herbicidal ratio of 70% or more and less than 90%)
COCCOCc1nnc2c(C(=O)Nc3nnc(C)o3)ccc(C(F)(F)F)n12 [1-019]	2 (Herbicidal ratio of 20% or more and less than 40%)	–	–	–	5 (Herbicidal ratio of 90% or more (almost completely withered))	4 (Herbicidal ratio of 70% or more and less than 90%)	2 (Herbicidal ratio of 20% or more and less than 40%)	2 (Herbicidal ratio of 20% or more and less than 40%)	4 (Herbicidal ratio of 70% or more and less than 90%)	5 (Herbicidal ratio of 90% or more (almost completely withered))	5 (Herbicidal ratio of 90% or more (almost completely withered))	5 (Herbicidal ratio of 90% or more (almost completely withered))
